Data as given in article PMC12745320 (2025).

Columns and labels:
[1] = tested on: PTL-1 (DNA, aptamer) GACGACGGCCAAGCTAACGGCTGCTAAGCATGTGGAGTCGTC; experiment: ThT fluorescence displacement; conditions: 150 mM NaCl, 5 mM MgCl2 (main text; supplement: 2.0 mM MgCl2); 10 mM MES (supplement: 20 mM), pH 6.0; ThT displaced; tested at 200 μM
[2] = tested on: PTL-1 (DNA, aptamer) GACGACGGCCAAGCTAACGGCTGCTAAGCATGTGGAGTCGTC; experiment: ThT fluorescence; conditions: 150 mM NaCl, 5 mM MgCl2 (main text; supplement: 2.0 mM MgCl2); 10 mM MES (supplement: 20 mM), pH 6.0; 1.0 μM aptamer, 2.0 μM ThT; described as non-specific binding
[3] = tested on: PTL-1 (DNA, aptamer) GACGACGGCCAAGCTAACGGCTGCTAAGCATGTGGAGTCGTC; experiment: ThT fluorescence displacement titration; conditions: 150 mM NaCl, 5 mM MgCl2 (main text; supplement: 2.0 mM MgCl2), 10 mM MES (supplement: 20 mM), pH 6.0, ThT 2.0 μM displaced, 1.0 μM aptamer
[4] = tested on: PTL-1a (DNA, aptamer) GACGACTCCAAGAATCCGGCTGCTAAGCATGTGGAGTCGTC; experiment: ITC; conditions: 150 mM NaCl, 5 mM MgCl2 (main text; supplement: 2.0 mM MgCl2); 10 mM MES (supplement: 20 mM), pH 6.0, 25 °C; typically 1.0 mM PTL in syringe
[5] = tested on: PTL-1c (DNA, aptamer) GACGACGGCCAAGAATCCGGCTGCTAAGCATGTGGAGTCGTC; experiment: ITC; conditions: 150 mM NaCl, 5 mM MgCl2 (main text; supplement: 2.0 mM MgCl2); 10 mM MES (supplement: 20 mM), pH 6.0, 25 °C; typically 1.0 mM PTL in syringe
[6] = tested on: PTL-1 (DNA, aptamer) GACGACGGCCAAGCTAACGGCTGCTAAGCATGTGGAGTCGTC; experiment: ITC; conditions: 150 mM NaCl, 5 mM MgCl2 (main text; supplement: 2.0 mM MgCl2); 10 mM MES (supplement: 20 mM), pH 6.0, 25 °C; 20 μM aptamer
[7] = tested on: PTL-1b (DNA, aptamer) GACGACGGCGAAGCTAACGGCTGCTAAGCATGTCGAGTCGTC; experiment: ITC; conditions: 150 mM NaCl, 5 mM MgCl2 (main text; supplement: 2.0 mM MgCl2); 10 mM MES (supplement: 20 mM), pH 6.0, 25 °C; typically 1.0 mM PTL in syringe

SMILES | binding [1] | further results
C=C1[C@@H](O)[C@@H]2O[C@]3(CC[C@H](/C=C/[C@@H](C)[C@@H]4CC(C)=C[C@@]5(O[C@H](C[C@@](C)(O)C(=O)O)CC[C@H]5O)O4)O3)CC[C@H]2O[C@@H]1[C@@H](O)C[C@H](C)[C@H]1O[C@@]2(CCCCO2)CC[C@H]1C | no | –
CC1(C)S[C@@H]2[C@H](NC(=O)Cc3ccccc3)C(=O)N2[C@H]1C(=O)O | no | –
CC1(C)S[C@@H]2[C@H](NC(=O)[C@H](N)c3ccccc3)C(=O)N2[C@H]1C(=O)O | no | –
CCCC[C@@H](C)[C@@H](OC(=O)C[C@@H](CC(=O)O)C(=O)O)[C@H](C[C@@H](C)C[C@H](O)CCCC[C@@H](O)C[C@H](O)[C@H](C)N)OC(=O)C[C@@H](CC(=O)O)C(=O)O | no | –
COc1cc(NS(=O)(=O)c2ccc(N)cc2)nc(OC)n1 | no | –
CS(=O)(=O)c1ccc([C@@H](O)[C@@H](CO)NC(=O)C(Cl)Cl)cc1 | no | –
C[C@@H]1C[C@H]2[C@@H]3CCC4=CC(=O)C=C[C@]4(C)[C@@]3(F)[C@@H](O)C[C@]2(C)[C@@]1(O)C(=O)CO | no | –
C[C@@H]1Cc2c(Cl)cc(C(=O)N[C@@H](Cc3ccccc3)C(=O)O)c(O)c2C(=O)O1 | no | –
C[C@H]1CCCC(=O)CCC/C=C/c2cc(O)cc(O)c2C(=O)O1 | no | –
Cc1ccc2c(c1)sc(-c1ccc(N(C)C)cc1)[n+]2C | – | binding [2]: yes
Cc1ncc([N+](=O)[O-])n1CCO | no | –
NC(=O)N1c2ccccc2C=Cc2ccccc21 | no | –
Nc1ccc(S(=O)(=O)Nc2cnc3ccccc3n2)cc1 | no | –
O=C(N[C@H](CO)[C@H](O)c1ccc([N+](=O)[O-])cc1)C(Cl)Cl | no | –
O=C1C=C2C(=CCOC2O)O1 (stereo not shown) | – | apparent Kd [3]: 18.4 µM; binding [4]: no; binding [5]: no; Kd [6]: 12.5 µM; binding [7]: no
